From patent US20210267996A1, “Compounds for inhibition of inflammation” (Children`s Medical Center Corporation, priority 2018, published 2021) come the findings set out here.

Structures are written as SMILES.

The IC50 is the concentration that inhibits the measured activity by half.

Experiment [1] addresses T1, human GSDMD-3C (Homo sapiens, UniProt P57764).
T1 sequence (P57764 1-271 limits assumed): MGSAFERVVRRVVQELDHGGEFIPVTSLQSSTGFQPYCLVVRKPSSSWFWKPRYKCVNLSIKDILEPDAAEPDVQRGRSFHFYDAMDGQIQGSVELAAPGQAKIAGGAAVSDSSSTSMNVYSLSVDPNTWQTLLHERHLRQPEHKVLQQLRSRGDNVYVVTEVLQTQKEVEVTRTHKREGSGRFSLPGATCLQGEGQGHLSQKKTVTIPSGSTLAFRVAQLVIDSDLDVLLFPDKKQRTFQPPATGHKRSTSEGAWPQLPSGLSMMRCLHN
As to the kind of experiment: Liposome leakage assay, GSDMD-3C plus 3C protease. It is filed as biochemical. On the set-up: Human GSDMD-3C and mouse GSDMA3-3C mutants were constructed by QuikChange Mutagenesis (Agilent Technologies); fused on or other part: His6-MBP tag, removed by TEV before use; The engineered 3C site is cut in the well by 3C protease. The method, then:
Liposome leakage assay: fluorogenic liposome leakage assay detects leakage of Tb^3+ from Tb^3+-loaded liposomes incubated with GSDMD and caspase-11 (See References 7 and 9). Liposome leakage was detected by an increase in fluorescence when Tb^3+ bound to dipicolinic acid (DPA) in Buffer C. […] The fluorescence intensity of the well was measured at 545 nm with an excitation of 276 nm 1 hr after addition of caspase-11 using a Perkin Elmer EnVision plate reader. The final percent inhibition was calculated as [(fluorescencetest compound−fluorescencenegative control)/(fluorescencepositive control−fluorescencenegative control)]×100, where a well with GSDMD without the test compound was used as positive control, and a well without caspase-11 was used as negative control.
[LC retention time. […] (b).
To determine the relative contribution of caspase-11 inhibition versus GSDMD inhibition by disulfiram in pore formation, the caspase cleavage site in GSDMD was replaced with the rhinovirus 3C protease site (GSDMD-3C) and the 3C protease was used instead of caspase-11 in the liposome leakage assay.

The test system of experiment [2] is mouse iBMDMs. The experiment in a line: Processing of caspase-1, GSDMD and IL-1β in iBMDMs (immunoblot). The settings on record: 1 hr time point. In kind it is cell-based. The method, then: FIG. 97 contains a bar graph showing results of an experiment where LPS-primed THP-1 cells, after medium removal, were incubated with probe FAM-YVAD-FMK in FLICA assay buffer for another 0.5 hr before fluorescence reading. iBMDMs were pretreated with disulfiram, Bay 11-7082, necrosulfonamide (NSA) or z-VAD-fmk for 1 hr before treated or not with Nigericin for 0.5 hr. Whole cell lysates and culture supernatants were immunoblotted with the indicated antibodies.
FIG. 98 contains a bar graph showing results of an experiment where LPS-primed THP-1 cells, after medium removal, were incubated with probe FAM-YVAD-FMK in FLICA assay buffer for another 0.5 hr before fluorescence reading. iBMDMs were pretreated with disulfiram, Bay 11-7082, necrosulfonamide (NSA) or z-VAD-fmk for 1 hr before treated or not with Nigericin for 1 hr. Whole cell lysates and culture supernatants were immunoblotted with the indicated antibodies.
Canonical inflammasome assembly activates caspase-1, which cleaves pro-IL-1β and GSDMD, and the latter is needed to release processed IL-1β and to induce pyroptosis. To assess which steps in NLRP3-mediated inflammation were inhibited post ASC speck formation, LPS-primed THP-1 cells were treated with vehicle, 30 μM z-VAD-fmk or disulfiram 1 hour before adding nigericin, and cleavage and activation of caspase-1, GSDMD, and pro-IL-1β were analysed by immunoblot of whole cell lysates 30 min later and 1 hr later. Secretion of processed IL-1β was also assessed by immunoblot of culture supernatants. […] The 1 hr time point is relevant as the cell death and IL-1β release measurements used cells stimulated with nigericin for 1 and 2 hrs, respectively.

Experiment [3] deals with C38A GSDMD (Homo sapiens, UniProt P57764, C38A). The experiment in a line: Liposome leakage assay, C38A GSDMD plus caspase-11. It is filed as biochemical.
Chain of C38A GSDMD (P57764 whole entry C38A): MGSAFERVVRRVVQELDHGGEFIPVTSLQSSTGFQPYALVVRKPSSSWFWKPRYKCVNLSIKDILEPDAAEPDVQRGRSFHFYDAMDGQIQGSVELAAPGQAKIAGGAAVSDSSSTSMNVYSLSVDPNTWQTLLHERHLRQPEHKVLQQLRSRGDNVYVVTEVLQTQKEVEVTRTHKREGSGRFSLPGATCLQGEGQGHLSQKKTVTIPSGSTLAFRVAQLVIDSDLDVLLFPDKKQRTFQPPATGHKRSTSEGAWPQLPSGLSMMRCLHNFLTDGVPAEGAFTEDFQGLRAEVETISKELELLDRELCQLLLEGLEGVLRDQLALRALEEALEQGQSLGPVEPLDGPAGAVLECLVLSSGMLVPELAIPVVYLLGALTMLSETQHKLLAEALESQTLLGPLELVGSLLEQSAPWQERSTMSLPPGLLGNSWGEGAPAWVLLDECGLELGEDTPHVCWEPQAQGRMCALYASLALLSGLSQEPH
In experiment [4] the test system is IL-1β. The experiment in a line: IL-1β secretion by ELISA, iBMDM with LPS transfection. It is filed as cell-based, mouse. The settings on record: 40 μM. The method, then:
Measurement of cytokines: concentrations of IL-1 (3 in culture supernatants or mouse serum were measured by ELISA kit (R&D Systems) according to the manufacturer's instructions. […] The number of surviving cells was determined by CellTiter-Glo assay (FIGS. 4 and 6) and IL-1β in culture supernatants was assessed by ELISA (FIG. 8) 2 hrs later. […] The number of surviving cells was determined by CellTiter-Glo assay (FIGS. 5 and 7) and IL-1β in culture supernatants was assessed by ELISA (FIG. 9) 2.5 hrs later.
(In general: In an ELISA, binding on a coated surface is turned into a signal by an enzyme label.)

Experiment [5] relates to caspase-1, GSDMD, and pro-IL-1β. As to the kind of experiment: Caspase-1, GSDMD, pro-IL-1β cleavage and IL-1β secretion by immunoblot, THP-1. In kind it is cell-based, human. On the technique in general: Immunoblotting shows a protein as a band on a membrane.
Experiment [6] relates to HEK293T cells. As to the kind of experiment: LDH release of HEK293T cells expressing caspase-11 and GSDMD. It is filed as cell-based. The method, then: FIG. 72 contains a bar graph showing results of an experiment when FL human WT or C191S GSDMD were co-expressed with caspase-11 in HEK293T cells. 8 h post transfection, the indicated amount of disulfiram was added and cell death was determined by LDH release 12 h later.
Cytotoxicity and cell viability assays: cell death and cell viability were determined by the lactate dehydrogenase release assay using the CytoTox 96 Non-Radioactive Cytotoxicity Assay kit (Promega) and by measuring ATP levels using the CellTiter-Glo Luminescent Cell Viability Assay (Promega), respectively, according to the manufacturer's instructions. Luminescence and absorbance were measured on a BioTek Synergy 2 plate reader.
To further confirm that disulfiram acts on Cys191, disulfiram inhibition of LDH release in HEK293T cells expressing caspase-11 and WT or C191S GSDMD was assessed.
(LDH leaks from cells whose membrane has failed.)

Experiment [7] concerns the target T2, mouse GSDMA3-3C (Mus musculus, UniProt Q5Y4Y6).
T2 construct: other: 3C-cleaved GSDMA3-3C; Human GSDMD-3C and mouse GSDMA3-3C mutants were constructed by QuikChange Mutagenesis (Agilent Technologies); fused on or other part: His6-MBP tag, removed by TEV before use; The engineered 3C site is cut by 3C protease, so the N-terminal pore-forming fragment is set free in the well
The experiment in a line: Liposome leakage assay, GSDMA3-3C plus 3C protease. In kind it is biochemical. The settings on record: read-out: IC50 of liposome leakage; 3C-cleaved GSDMA3-3C.

T2 sequence (Q5Y4Y6 with tags, fused parts or gaps INS262LEVLFQGP, form open): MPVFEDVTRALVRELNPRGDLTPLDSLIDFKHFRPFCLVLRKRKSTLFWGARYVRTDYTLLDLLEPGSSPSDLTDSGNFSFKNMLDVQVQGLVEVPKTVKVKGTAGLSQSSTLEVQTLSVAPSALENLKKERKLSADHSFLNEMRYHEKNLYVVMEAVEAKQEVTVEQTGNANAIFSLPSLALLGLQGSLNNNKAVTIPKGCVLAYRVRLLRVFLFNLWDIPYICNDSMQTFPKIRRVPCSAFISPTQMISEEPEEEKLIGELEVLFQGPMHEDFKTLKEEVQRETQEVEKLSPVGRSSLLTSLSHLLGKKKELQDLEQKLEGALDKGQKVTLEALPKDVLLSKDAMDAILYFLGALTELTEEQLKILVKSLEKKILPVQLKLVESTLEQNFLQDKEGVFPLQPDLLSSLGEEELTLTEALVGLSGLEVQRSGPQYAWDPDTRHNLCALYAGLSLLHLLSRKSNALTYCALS

For `Cc1ccc(S(=O)(=O)/C=C/C#N)cc1` [Bay 11-7082], in experiment [1], the “inhibition of leakage by GSDMD-3C plus 3C protease versus GSDMD plus caspase-11” value was “substantially less able to inhibit leakage”. For the same compound, in experiment [2], the “processing of caspase-1, GSDMD and IL-1β” value was “still inhibited processing”.

On to `CCN(CC)C(=S)SSC(=S)N(CC)CC` [C-23, Tetraethylthiuram disulfide], for which the IC50 is roughly 0.3 µM in experiment [3] and 12.1 ± 2.1 µM in experiment [7]. The “LPS transfection-induced IL-1β secretion” value in experiment [4] is “potency comparable to the pan-caspase inhibitor z-VAD-fmk”. For the same compound, the “caspase-1, GSDMD, pro-IL-1β processing and IL-1β secretion” value in experiment [5] (1 μM with copper gluconate) is “completely blocked”; in experiment [5] (1 μM without copper) it was “had no effect”. Further, the “C191S GSDMD-induced cell death (LDH release)” value in experiment [6] (caspase-11 plus C191S GSDMD) is recorded as “only inhibited when 4 times as much disulfiram was added”. In experiment [6] (caspase-11 plus WT GSDMD), the “WT GSDMD-induced cell death (LDH release)” value is recorded as “strongly inhibited”.
